Article PMC5667507, “A novel ^18F-labelled high affinity agent for PET imaging of the translocator protein” (Chemical Science, 2015)

Assays:
[1] = Metabolite analysis of arterial blood samples from baboon (parent fraction); assay type: in vivo, baboon (Papio anubis); settings: baboon arterial plasma, 60 minutes post-injection
Procedure: Following PET reconstruction and co-registration to an MRI (Fig. 7a), a time–activity curve for the tracer in the whole brain was established (Fig. 7b). […]
generated and SUV determined as the concentration in the VOI divided by the injected dose divided […]
software (GraphPad Softare Inc).
Arterial blood samples were collected from the baboon every 45 s until 6 min after injection of […]
exception of the samples collected for metabolite analysis (3.5 mL each), all blood samples were 1 mL each. Samples for metabolite analysis were collected at 6, 15, 30, 60, 120, 150 and 240 min after radiotracer bolus injection. After blood collection, all samples were kept on ice until analysed.
Radioactivity in whole blood and plasma was assessed with a well-type γ-counter using a 400–1400 keV window (Perkin Elmer Wallac 2480, USA). Plasma samples were processed by acetonitrile denaturation and analysed by HPLC on a Luna C18 column with a mobile phase of MeOH/H2O-Et3N (0.2%) 80/20 at a flow rate of 4 mL/min to estimate the parent fraction.

[2] = test system: TSPO; assay: In vitro autoradiography, brain sections of G7 orthotopic mouse model of human glioblastoma; assay type: binding
Description: (§1) An initial investigation of the potential of [^18F]-AB5186 6 to bind to TSPO in brain involved in vitro autoradiography using a G7 orthotopic mouse model of human glioblastoma.[25] Autoradiography allows the distribution of a radiolabelled compound to be visualised in intact biological tissue sections.[26] […] Displacement of [^18F]-AB5186 6 by the TSPO ligand PK11195 confirms the in vitro specificity of the tracer for TSPO in brain tissue.
(§2) The fraction containing 18F-AB5186 6 was concentrated in vacuo and then reconstituted in 2 mL of a 10% ethanol/0.9% saline solution. Passing the sample through a pre-treated 13 mm 0.2 µm filter then completed formulation of the radiotracer. The identity of the radiolabelled product was confirmed by co-injection with a cold sample of AB5186 6. Quality control was performed by analytical HPLC, using a Phenomenex Synergi 4 µm Hydro-RP 80A (150 × 4.60 mm) column and the mobile phase described above for the semi-prep HPLC purification step. Radiochemical purity was determined by measuring the area under the peaks on the chromatogram, and specific activity was calculated using a standard curve.
(§3) 8. Radio-HPLC chromatogram of [18F]-AB5186 (6) after purification
(§4) CD1 nude mice had […] of either G7 or U87MG-Luc2 cultured cells implanted intracranially into the caudate nucleus using standard stereotactic procedures. Successful implantation of U87MG-Luc2 tumours was confirmed by performing IVIS® scans approximately two weeks following the procedure. Animals were used for ex vivo autoradiography and PET imaging studies 21–30 days post tumour implantation. Prior to any procedure mice were anaesthetised using inhaled isoflurane (in medical oxygen; induction 5.0%; maintenance 2.0–3.0%). Body temperature was maintained using a heating pad.
(§5) 10. In vitro Autoradiography5 Methodology
(§6) The brain from a mouse bearing an intracranial G7 tumour was used. […]
(§7) temperature. Non-specific binding was determined in adjacent sections by incubating with [18F]- AB5186 6 in the presence of 10 µM PK11195 (Tocris, UK). […]

[3] = molecular target: T1, TSPO (Mus musculus, UniProt P50637); assay: as above; assay type: binding; settings: contralateral region; 3 nM tracer, 10 µM PK11195
T1 construct: The brain from a mouse bearing an intracranial G7 tumour was used; from tissue; host or cells: 20 µm coronal cryosections of CD1 nude mouse brain with an intracranial G7 human glioblastoma xenograft
T1 sequence (P50637 whole entry): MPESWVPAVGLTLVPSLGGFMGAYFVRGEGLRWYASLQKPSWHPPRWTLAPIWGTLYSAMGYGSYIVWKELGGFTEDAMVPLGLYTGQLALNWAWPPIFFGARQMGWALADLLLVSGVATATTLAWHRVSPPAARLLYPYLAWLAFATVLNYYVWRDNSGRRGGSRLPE
Description: as §1, §2, §3, §4, §5, §6, §7

## CCN(CC)C(=O)c1nc2ccccc2c(-c2ccccc2)c1C[18F] [[^18F]-AB5186 6]
[1]
  parent still intact: 29.8%
[2]; in vitro autoradiograms, G7 xenograft
  total binding, tumour tissue compared to contralateral side: markedly increased
[2]; tumour tissue, 3 nM tracer, 10 µM PK11195
  displacement of tracer binding by excess unlabelled PK11195: 76%
[3]
  displacement of tracer binding by excess unlabelled PK11195: 23%
